Where two headings read alike, the source gives them in different places.
How the values were obtained:
[1] = Rat pharmacokinetics, 1 mg/kg IV infusion and 5.0 mg/kg PO; type: in vivo; details: for Vd / clearance: 1 mg/kg IV infusion; for Vd: read-out: Vss in rats; for bioavailability: 5.0 mg/kg PO, read-out: oral bioavailability (% F) in rats; for clearance: read-out: CL in rats (converted)
Description: For IV administration the test compound was formulated in 60:40 PEG 400:water with 1 equivalent HCl at 0.5 mg/mL.
For PO (oral) administration, the test compound was formulated in 5/75/10/10 ethanol/PG/solutol/water at 2.5 mg/mL.
IV and PO dosing groups each consisted of 3 male SD rats. […] The animals were fasted overnight prior to dose administration and up to 4 hr after dosing.
For the IV infusion group, the test compound was administered by intravenous infusion over 30 minutes. The rate of infusion was adjusted according to the body weight of each animal to deliver a dose of 1 mg/kg at 2 mL/kg. For the oral dosing group, the test article was administered by oral gavage at 2 mL/kg for a dose of 5.0 mg/kg.
Serial venous blood samples (approximately 0.4 mL each) were taken at specified time points after dosing from each animal. The blood samples were collected into Vacutainer™ tubes (Becton-Disckinson Corp, New Jersey, USA) containing EDTA as the anti-coagulant and were immediately placed on wet ice pending centrifugation for plasma.
An LC/MS/MS method was used to measure the concentration of test compound in plasma.
Non-compartmental pharmacokinetic analysis was performed on the plasma concentration-time data.

[2] = 3 h, 2 μM, pH 7.4
Description: 1 mL Teflon dialysis cells from Harvard Apparatus (Holliston, Mass., USA) were used in these experiments. […] A nominal concentration of 2 μM of compound was spiked into 1 mL of plasma or 1 mL of cell culture media. The total volume of liquid on each side of the cell was 1 mL. After 3 hours equilibration in a 37° C. water bath, samples from each side of the cell were aliquoted into the appropriate vials containing either 1 mL of human plasma (cell culture media), or buffer. Sample vials were weighed and recorded. […] Samples were vortexed and centrifuged for 15 minutes at 12000 G. 200 μL of the supernatant was removed and placed into a new 96 well plate. An additional 200 μL of 1:1 ACN:water was added. The plate was then vortexed and subjected to LC-MS analysis. The percent unbound for an analyte in plasma was calculated using the following equations % Unbound=100(Cf/Ct) where Cf and Ct are the post-dialysis buffer and plasma concentrations, respectively.

[3] = molecular target: CYP3A4 (Homo sapiens (Human), UniProt P08684); experiment: Cytochrome P450 inhibition IC50, CYP3A4 (midazolam and testosterone); type: in vitro ADME; details: for IC50: comparative table, testosterone substrate, read-out: Cyp3A4 IC50 Testesterone (TST)
[4] = test system: Caco-2 cells; experiment: Determination of CACO-2 efflux ratio / permeability; type: in vitro ADME; details: for CACO A→B: apical to basolateral; for CACO B→A: basolateral to apical
Description: (§1) Caco-2 cells were maintained in Dulbecco's Modification of Eagle's Medium (DMEM) with sodium pyruvate, Glutmax supplemented with 1% Pen/Strep, 1% NEAA and 10% fetal bovine serum in an incubator set at 37° C., 90% humidity and 5% CO2. Caco-2 cells between passage 62 and 72 were seeded at 2100 cells/well and were grown to confluence over at least 21-days on 24 well PET (polyethylene-terephthalate) plates (BD Biosciences). The receiver well contained HBSS buffer (10 mM HEPES, 15 mM Glucose with pH adjusted to pH 6.5) supplemented with 1% BSA pH adjusted to pH 7.4. After an initial equilibration with transport buffer, TEER values were read to test membrane integrity. Buffers containing test compounds were added and 100 μl of solution was taken at 1 and 2 hrs from the receiver compartment. Removed buffer was replaced with fresh buffer and a correction is applied to all calculations for the removed material. The experiment was carried out in replicate. All samples were immediately collected into 400 μl 100% acetonitrile acid to precipitate protein and stabilize test compounds. Cells were dosed on the apical or basolateral side to determine forward (A to B) and reverse (B to A) permeability. Permeability through a cell free trans-well is also determined as a measure of cellular permeability through the membrane and non-specific binding. To test for non-specific binding and compound instability percent recovery is determined. Samples were analyzed by LC/MS/MS.
(§2) Vr and Vd is the volume in the receiver and donor compartment in cm^3, respectively. A is the area of the cell monolayer (0.33 cm^2). D0 and D120 is the measured donor concentration at the beginning and end of the experiment, respectively. R120 is the receiver concentration at the end of the experiment (120 minutes).

[5] = molecular target: ASK1 (Rattus norvegicus, UniProt A0A8I6AEL0); experiment: ASK1 293 cell-based assay (cellular EC50), AP-1:luciferase reporter
Description: 2. […] Promega Steady-Glo Luciferase Assay System product insert. 3. Media Required Complete Growth Medium, “CGM” DMEM (MediaTech) 10% FBS 1% PSG 100 ug/mL HygromycinB Assay Medium, “AM” DMEM (Invitrogen) 25 mM HEPES 1 mM Sodium Pyruvate 1% PSG 4. Methods Maintenance:
Count cells and dilute to 1.5×10^5 cells per mL; add adenovirus such that there are 5 infectious forming units per cell.
Prime (20 to 30 mL) and plate cells in Greiner poly-D-Lysine coated 384-well plates at 1.2×10^4 cells per well using BioTek uFill (80 uL per well).
Immediately dose plates with 0.4 uL of compound dose series (in 100% DMSO) incubate 24 hours in humidified incubator (37° C., 5% CO2).
Process plates (per manufacturer's instructions) as follows:
Remove 60 uL of AM from assay wells
Add 20 uL per well Steady-Glo Firefly substrate, let sit for 10-20 minutes at room temperature
Acquire data on a fluorescence plate reader

[6] = Determination of CACO-2 efflux ratio / permeability; type: in vitro ADME; details: human, Caco-2, pH 7.4; read-out: Efflux ratio (B/A)/(A/B)
Description: as §1, §2

[7] = Sprague-Dawley, rat, plasma, male SD rats

Chain of ASK1 (A0A8I6AEL0 1-1381): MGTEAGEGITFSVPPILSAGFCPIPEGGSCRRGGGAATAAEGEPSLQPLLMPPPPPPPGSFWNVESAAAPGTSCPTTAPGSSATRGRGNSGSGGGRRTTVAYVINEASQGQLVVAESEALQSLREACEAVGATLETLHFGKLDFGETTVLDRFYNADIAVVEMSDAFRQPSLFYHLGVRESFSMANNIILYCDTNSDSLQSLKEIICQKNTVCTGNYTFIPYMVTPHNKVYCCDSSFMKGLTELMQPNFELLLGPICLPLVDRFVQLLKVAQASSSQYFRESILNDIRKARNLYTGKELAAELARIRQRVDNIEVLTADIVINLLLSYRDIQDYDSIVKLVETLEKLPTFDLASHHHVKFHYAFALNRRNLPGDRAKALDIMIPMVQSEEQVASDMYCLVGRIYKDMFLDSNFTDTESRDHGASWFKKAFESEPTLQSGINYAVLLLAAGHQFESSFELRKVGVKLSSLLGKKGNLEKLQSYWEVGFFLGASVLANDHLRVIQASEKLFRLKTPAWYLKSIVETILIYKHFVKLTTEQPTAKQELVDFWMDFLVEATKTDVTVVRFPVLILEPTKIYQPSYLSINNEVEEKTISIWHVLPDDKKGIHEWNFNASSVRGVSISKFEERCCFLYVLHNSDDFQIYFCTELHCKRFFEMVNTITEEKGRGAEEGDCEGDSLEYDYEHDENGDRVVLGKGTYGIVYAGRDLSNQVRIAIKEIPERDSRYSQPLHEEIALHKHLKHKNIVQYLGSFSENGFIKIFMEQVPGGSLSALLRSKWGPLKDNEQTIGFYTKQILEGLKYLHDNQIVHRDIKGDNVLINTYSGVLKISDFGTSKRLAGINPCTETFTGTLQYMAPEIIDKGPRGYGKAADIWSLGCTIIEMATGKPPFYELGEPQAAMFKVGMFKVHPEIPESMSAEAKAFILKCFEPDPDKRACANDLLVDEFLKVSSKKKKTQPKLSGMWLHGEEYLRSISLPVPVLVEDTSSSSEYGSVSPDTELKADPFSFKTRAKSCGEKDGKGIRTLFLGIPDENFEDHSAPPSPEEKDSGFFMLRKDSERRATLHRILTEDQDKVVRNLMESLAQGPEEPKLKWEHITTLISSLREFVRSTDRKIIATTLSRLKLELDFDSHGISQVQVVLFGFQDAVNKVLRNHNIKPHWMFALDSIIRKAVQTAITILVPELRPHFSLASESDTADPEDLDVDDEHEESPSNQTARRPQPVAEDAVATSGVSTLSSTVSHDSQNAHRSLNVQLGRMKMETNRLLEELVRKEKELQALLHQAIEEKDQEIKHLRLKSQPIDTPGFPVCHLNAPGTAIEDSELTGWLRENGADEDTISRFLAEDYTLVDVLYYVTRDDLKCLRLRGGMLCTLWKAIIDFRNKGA
Chain of CYP3A4 (P08684 whole entry): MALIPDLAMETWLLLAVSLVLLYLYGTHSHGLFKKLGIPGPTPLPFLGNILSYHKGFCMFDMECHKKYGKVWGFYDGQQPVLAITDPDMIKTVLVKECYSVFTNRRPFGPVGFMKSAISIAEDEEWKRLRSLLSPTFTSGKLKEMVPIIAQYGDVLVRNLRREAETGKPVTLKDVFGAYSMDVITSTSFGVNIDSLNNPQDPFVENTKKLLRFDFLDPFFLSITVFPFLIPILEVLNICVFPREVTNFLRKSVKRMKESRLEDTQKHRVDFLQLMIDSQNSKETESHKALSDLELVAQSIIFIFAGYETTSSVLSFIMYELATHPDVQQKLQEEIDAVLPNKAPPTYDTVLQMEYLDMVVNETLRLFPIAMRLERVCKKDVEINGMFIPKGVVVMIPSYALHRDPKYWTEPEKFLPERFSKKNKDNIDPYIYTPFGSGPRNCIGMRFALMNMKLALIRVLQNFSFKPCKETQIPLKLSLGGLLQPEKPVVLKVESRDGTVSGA

Compound	number of times compound of formula (I) shows an improvement over the indicated compound: Cyp3A4 IC50 (TST) [3] [X]	IC50 [3] [nM]	clearance [1, 7] [mL/min/kg]	Vd [1, 7] [L/kg]	bioavailability [1, 7] [%]	number of times compound of formula (I) shows an improvement over the indicated compound: % F in rats ([1]; rat, in vivo) [X]	number of times compound of formula (I) shows an improvement over the indicated compound: CL in rats ([1]; rat, in vivo) [X]	number of times compound of formula (I) shows an improvement over the indicated compound: t½ in rats ([1]; rat, in vivo) [X]	CACO A→B [4]	CACO B→A [4]	further results
Cc1cc(F)c(C(=O)Nc2cccc(-c3nncn3C(C)C)n2)cc1-n1cnc(C2CC2)c1 [compound of formula (I), 5-(4-cyclopropyl-1H-imidazol-1-yl)-N-(6-(4-isopropyl-4H-1,2,4-triazol-3-yl)pyridin-2-yl)-2-fluoro-4-methylbenzamide]	–	–	–	–	–	–	–	–	–	–	Vd ([1]; rat, plasma, male SD rats): 0.55 L/kg; bioavailability ([1]; rat, plasma, male SD rats): 75%; percent unbound measured in human plasma [2]: 11.94%
CC(C)n1cnnc1-c1cccc(NC(=O)c2cccc(-n3cnc(C4CC4)c3)c2)n1 [Compound A]	10	1100	5	0.17	11	6.8	2.7	8.6	3.1	18.5	t1/2 in rats ([1]; male SD rats): 0.59 h; number of times compound of formula (I) shows an improvement over the indicated compound: Vss in rats ([1]; rat, in vivo): 3.2 X
Cc1ccc(C(=O)Nc2cccc(-c3nncn3C3CC3)n2)cc1-n1cnc(C2CC2)c1 [Compound B]	2.8	4000	6.5	0.54	50	1.5	3.6	3.9	0.26	4	number of times compound of formula (I) shows an improvement over the indicated compound: EC50 [5]: 9 X; number of times compound of formula (I) shows an improvement over the indicated compound: PBadj EC50 [5]: 33 X; EC50 ([5]; 293/AP1-Luc cells infected with adenovirus expressing kinase active ASK1, 24 hours): 18 nM; EC50 ([5]; protein binding adjusted EC50, read-out: PBadj EC50): 563 nM; number of times compound of formula (I) shows an improvement over the indicated compound: Cyp3A4 IC50/PBAdj.EC50 [3]: 92 X; Cyp3A4 IC50/PBAdj.EC50 ([3]; ratio of Cyp3A4 inhibition and protein binding adjusted EC50): 7; half-life ([1]; Sprague-Dawley, rat, plasma, male SD rats, read-out: t1/2 in rats (converted)): 1.3 h; efflux ratio at 120 min [6]: 15.4
